Measurements from the NIST ThermoML archive (doi:10.1016/j.fluid.2014.05.031).
Where “and” joins values, the source holds several entries; their conditions need not be identical. Equal values may be shown once. Numbers after ± are expanded uncertainties.

Assay: excess molar enthalpy (molar enthalpy of mixing); xn = mol fraction of the nth substance listed
Settings: Liquid, Flow calorimetry

CC(=O)O [acetic acid] + CCO
323.15 K, 1548 kPa
Settings | excess molar enthalpy [kcal/mol]
x1 = 0.0247 | 0.0108 ± 0.00813
x1 = 0.0493 | 0.0202 ± 0.0108
x1 = 0.0987 | 0.0347 ± 0.0146
x1 = 0.1729 | 0.0468 ± 0.00693
x1 = 0.2473 | 0.0514 ± 0.00167
x1 = 0.3467 | 0.0507 ± 0.00263
x1 = 0.4464 | 0.0435 ± 0.00478
x1 = 0.5464 | 0.0354 ± 0.00526
x1 = 0.6467 | 0.0265 ± 0.00502
x1 = 0.7473 | 0.0192 ± 0.0043
x1 = 0.8229 | 0.0145 ± 0.00406
x1 = 0.8987 | 0.0093 ± 0.00478
x1 = 0.9493 | 0.00504 ± 0.00382
x1 = 0.9746 | 0.0028 ± 0.00239

CC(=O)O [acetic acid] + CCOC(C)=O
323.15 K, 1548 kPa
Settings | excess molar enthalpy [kcal/mol]
x2 = 0.0148 | -0.00177 ± 0.00151
x2 = 0.03 | -0.00354 ± 0.00234
x2 = 0.0613 | -0.00636 ± 0.00263
x2 = 0.1108 | -0.00925 ± 0.00182
x2 = 0.1637 | -0.0104 ± 0.00148
x2 = 0.2403 | -0.00942 ± 0.00184
x2 = 0.3246 | -0.00631 ± 0.00287
x2 = 0.4179 | -0.00131 ± 0.00359
x2 = 0.5217 | 0.00523 ± 0.00406
x2 = 0.6379 | 0.0129 ± 0.00359
x2 = 0.7347 | 0.0174 ± 0.00201
x2 = 0.8409 | 0.0188 ± 0.0012
x2 = 0.9178 | 0.0152 ± 0.00287
x2 = 0.9582 | 0.0105 ± 0.00311

CCO [ethanol] + O
Settings | excess molar enthalpy [kcal/mol]
333.15 K, 1824 kPa, x1 = 0.0079 | -0.00954 ± 0.00098
333.15 K, 1824 kPa, x1 = 0.016 | -0.019 ± 0.00103
333.15 K, 1824 kPa, x1 = 0.0333 | -0.037 ± 0.000956
333.15 K, 1824 kPa, x1 = 0.0519 | -0.0519 ± 0.0012
333.15 K, 1824 kPa, x1 = 0.0719 | -0.0636 ± 0.0012
333.15 K, 1824 kPa, x1 = 0.0936 | -0.071 ± 0.0012
333.15 K, 1824 kPa, x1 = 0.1172 | -0.0736 ± 0.0012
333.15 K, 1824 kPa, x1 = 0.143 | -0.0731 ± 0.0012
333.15 K, 1824 kPa, x1 = 0.1712 | -0.0688 ± 0.0012
333.15 K, 1824 kPa, x1 = 0.2023 | -0.0619 ± 0.0012
333.15 K, 1824 kPa, x1 = 0.2366 | -0.0552 ± 0.0012
333.15 K, 1824 kPa, x1 = 0.2747 | -0.0454 ± 0.0012
333.15 K, 1824 kPa, x1 = 0.3173 | -0.0351 ± 0.000956
333.15 K, 1824 kPa, x1 = 0.3653 | -0.0241 ± 0.000956
333.15 K, 1824 kPa, x1 = 0.4196 | -0.0125 ± 0.00098
333.15 K, 1824 kPa, x1 = 0.4818 | -0.00174 ± 0.00098
333.15 K, 1824 kPa, x1 = 0.5535 | 0.00655 ± 0.00098
333.15 K, 1824 kPa, x1 = 0.6372 | 0.00999 ± 0.00098
333.15 K, 1824 kPa, x1 = 0.7361 | 0.00746 ± 0.00098
333.15 K, 1824 kPa, x1 = 0.8548 | 0.000143 ± 0.00098
333.15 K, 1824 kPa, x1 = 0.9236 | -0.0037 ± 0.00098
333.15 K, 1824 kPa, x1 = 0.9608 | -0.00289 ± 0.00098
363.15 K, 1203 kPa, x1 = 0.0079 | -0.00268 ± 0.00098
363.15 K, 1203 kPa, x1 = 0.016 | -0.00562 ± 0.00098
363.15 K, 1203 kPa, x1 = 0.0333 | -0.0111 ± 0.00098
363.15 K, 1203 kPa, x1 = 0.0518 | -0.0141 ± 0.001
363.15 K, 1203 kPa, x1 = 0.0719 | -0.014 ± 0.001
363.15 K, 1203 kPa, x1 = 0.0936 | -0.0108 ± 0.00098
363.15 K, 1203 kPa, x1 = 0.1172 | -0.00483 ± 0.00098
363.15 K, 1203 kPa, x1 = 0.143 | 0.00375 ± 0.00098
363.15 K, 1203 kPa, x1 = 0.1712 | 0.0131 ± 0.001
363.15 K, 1203 kPa, x1 = 0.2022 | 0.0237 ± 0.00103
363.15 K, 1203 kPa, x1 = 0.2365 | 0.0344 ± 0.000956
363.15 K, 1203 kPa, x1 = 0.2746 | 0.0457 ± 0.0012
363.15 K, 1203 kPa, x1 = 0.3173 | 0.0576 ± 0.0012
363.15 K, 1203 kPa, x1 = 0.3652 | 0.0688 ± 0.0012
363.15 K, 1203 kPa, x1 = 0.4196 | 0.0793 ± 0.0012
363.15 K, 1203 kPa, x1 = 0.4817 | 0.0858 ± 0.0012
363.15 K, 1203 kPa, x1 = 0.5534 | 0.0875 ± 0.0012
363.15 K, 1203 kPa, x1 = 0.6371 | 0.0813 ± 0.0012
363.15 K, 1203 kPa, x1 = 0.736 | 0.0641 ± 0.0012
363.15 K, 1203 kPa, x1 = 0.8548 | 0.0351 ± 0.000956
363.15 K, 1203 kPa, x1 = 0.9236 | 0.018 ± 0.001
383.15 K, 1500 kPa, x1 = 0.0333 | 0.00287 ± 0.00098
383.15 K, 1500 kPa, x1 = 0.0719 | 0.0147 ± 0.001
383.15 K, 1500 kPa, x1 = 0.1172 | 0.0339 ± 0.000956
383.15 K, 1500 kPa, x1 = 0.1712 | 0.0588 ± 0.0012
383.15 K, 1500 kPa, x1 = 0.2365 | 0.0858 ± 0.0012
383.15 K, 1500 kPa, x1 = 0.3173 | 0.112 ± 0.00143
383.15 K, 1500 kPa, x1 = 0.4196 | 0.132 ± 0.00143
383.15 K, 1500 kPa, x1 = 0.5534 | 0.138 ± 0.00143
383.15 K, 1500 kPa, x1 = 0.6371 | 0.13 ± 0.00143
383.15 K, 1500 kPa, x1 = 0.736 | 0.106 ± 0.00143
383.15 K, 1500 kPa, x1 = 0.7926 | 0.0887 ± 0.0012
383.15 K, 1500 kPa, x1 = 0.8548 | 0.0645 ± 0.0012
383.15 K, 1500 kPa, x1 = 0.9236 | 0.0349 ± 0.000956

CCOC(C)=O [ethyl acetate] + CCO
Settings | excess molar enthalpy [kcal/mol]
363.15 K, 1548 kPa, x1 = 0.0151 | 0.0233 ± 0.001
363.15 K, 1548 kPa, x1 = 0.0305 | 0.0473 ± 0.0012
363.15 K, 1548 kPa, x1 = 0.0624 | 0.0937 ± 0.0012
363.15 K, 1548 kPa, x1 = 0.0956 | 0.138 ± 0.00143
363.15 K, 1548 kPa, x1 = 0.1302 | 0.1809 ± 0.00167
363.15 K, 1548 kPa, x1 = 0.1664 | 0.2213 ± 0.00191
363.15 K, 1548 kPa, x1 = 0.2042 | 0.2588 ± 0.00215
363.15 K, 1548 kPa, x1 = 0.2438 | 0.2935 ± 0.00239
363.15 K, 1548 kPa, x1 = 0.2853 | 0.3284 ± 0.00263
363.15 K, 1548 kPa, x1 = 0.3288 | 0.3559 ± 0.00287
363.15 K, 1548 kPa, x1 = 0.3745 | 0.3781 ± 0.00311
363.15 K, 1548 kPa, x1 = 0.4226 | 0.3984 ± 0.00335
363.15 K, 1548 kPa, x1 = 0.4732 | 0.4104 ± 0.00335
363.15 K, 1548 kPa, x1 = 0.5265 | 0.4087 ± 0.00335
363.15 K, 1548 kPa, x1 = 0.5828 | 0.4039 ± 0.00335
363.15 K, 1548 kPa, x1 = 0.6424 | 0.3867 ± 0.00311
363.15 K, 1548 kPa, x1 = 0.7054 | 0.3552 ± 0.00287
363.15 K, 1548 kPa, x1 = 0.7724 | 0.305 ± 0.00263
363.15 K, 1548 kPa, x1 = 0.8435 | 0.2323 ± 0.00215
363.15 K, 1548 kPa, x1 = 0.9192 | 0.133 ± 0.00143
363.15 K, 1548 kPa, x1 = 0.9589 | 0.0698 ± 0.0012
413.15 K, 1307 kPa, x1 = 0.0151 | 0.0258 ± 0.0012
413.15 K, 1307 kPa, x1 = 0.0306 | 0.0531 ± 0.0012
413.15 K, 1307 kPa, x1 = 0.0624 | 0.105 ± 0.00143
413.15 K, 1307 kPa, x1 = 0.0956 | 0.154 ± 0.00167
413.15 K, 1307 kPa, x1 = 0.1302 | 0.201 ± 0.00191
413.15 K, 1307 kPa, x1 = 0.1664 | 0.2457 ± 0.00215
413.15 K, 1307 kPa, x1 = 0.2042 | 0.2863 ± 0.00239
413.15 K, 1307 kPa, x1 = 0.2438 | 0.325 ± 0.00263
413.15 K, 1307 kPa, x1 = 0.2853 | 0.359 ± 0.00287
413.15 K, 1307 kPa, x1 = 0.3288 | 0.3879 ± 0.00311
413.15 K, 1307 kPa, x1 = 0.3745 | 0.4123 ± 0.00335
413.15 K, 1307 kPa, x1 = 0.4226 | 0.4238 ± 0.00359
413.15 K, 1307 kPa, x1 = 0.4732 | 0.4338 ± 0.00359
413.15 K, 1307 kPa, x1 = 0.5265 | 0.4331 ± 0.00359
413.15 K, 1307 kPa, x1 = 0.5829 | 0.4218 ± 0.00335
413.15 K, 1307 kPa, x1 = 0.6424 | 0.3975 ± 0.00335
413.15 K, 1307 kPa, x1 = 0.7055 | 0.359 ± 0.00287
413.15 K, 1307 kPa, x1 = 0.7724 | 0.3014 ± 0.00263
413.15 K, 1307 kPa, x1 = 0.8435 | 0.2244 ± 0.00191
413.15 K, 1307 kPa, x1 = 0.9192 | 0.125 ± 0.00143
413.15 K, 1307 kPa, x1 = 0.9589 | 0.066 ± 0.0012

CCOC(C)=O [ethyl acetate] + O
353.15 K, 1272 kPa
Settings | excess molar enthalpy
x1 = 0.0096 | 0.005 ± 0.00478 kcal/mol
x1 = 0.0201 | 0.0107 ± 0.00932 kcal/mol
x1 = 0.0441 | 0.0219 ± 0.0206 kcal/mol
x1 = 0.058 | 0.0284 ± 0.0287 kcal/mol
x1 = 0.0733 | 0.0356 ± 0.0287 kcal/mol
x1 = 0.0905 | 0.0435 kcal/mol and 0.0437 kcal/mol
x1 = 0.1096 | 0.0526 ± 0.0287 kcal/mol
x1 = 0.1313 | 0.0631 ± 0.0287 kcal/mol
x1 = 0.1559 | 0.0743 ± 0.0287 kcal/mol
x1 = 0.1842 | 0.087 ± 0.0287 kcal/mol
x1 = 0.2169 | 0.103 ± 0.0287 kcal/mol
x1 = 0.2554 | 0.121 ± 0.0287 kcal/mol
x1 = 0.3012 | 0.142 ± 0.0287 kcal/mol
x1 = 0.3565 | 0.168 ± 0.0287 kcal/mol
x1 = 0.4249 | 0.2 ± 0.0287 kcal/mol
x1 = 0.5114 | 0.24 ± 0.0287 kcal/mol
x1 = 0.5639 | 0.264 ± 0.0287 kcal/mol
x1 = 0.6244 | 0.293 ± 0.0287 kcal/mol
x1 = 0.6949 | 0.324 ± 0.00454 kcal/mol
x1 = 0.8258 | 0.287 ± 0.0454 kcal/mol
x1 = 0.8781 | 0.225 ± 0.0335 kcal/mol
x1 = 0.9359 | 0.141 ± 0.0789 kcal/mol
